Assay: collision cross section (DTIM-MS, N2); higher = larger ion
Method: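 Collision cross section (CCS) of drug and natural-product chemical standards (validation set 2, measured in this paper). Three independent measurements were made across 2 months; the value taken is their mean (avg_ccs), for the ion adduct given.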

| SMILES | collision cross section (ion adduct: [M+H]+) [Å²] | collision cross section (ion adduct: [M-H]-) [Å²] |
| --- | --- | --- |
| C=CCc1cc(OC)c(OC)c(OC)c1 [Elemicin] | 144.76 |  |
| Cc1cc(O)c2c(c1)C(=O)c1cc(O)cc(O)c1C2=O [Emodin] | 156.69 | 155.06 |
| CCOc1cc(NC(C)=O)ccc1C(=O)OC [Ethopabate] | 151.13 | 158.16 |
| CCOC(=O)c1ccc(O)c(OC)c1 [Ethyl Vanillate] |  | 144.12 |
| CCOC(=O)c1cc2ccccc2oc1=O [Ethyl coumarin-3-carboxylate] | 141.92 |  |
| CCOc1cc(C=O)ccc1O [Ethyl vanillin] |  | 133.69 |
| COc1ccc(C=CC(=O)c2c(O)cc(OC)cc2OC)cc1 [Flavokawain A] | 176.36 | 184.75 |
| O=C(O)c1ccccc1Nc1cccc(C(F)(F)F)c1 [Flufenamic acid] | 159.39 | 160.69 |
| Nc1[nH]c(=O)ncc1F [Fluorocytosine] | 119.97 |  |
| COc1cc(O)c2c(=O)cc(-c3ccc(O)cc3)oc2c1 [Genkwanin] | 163.54 | 166.12 |
| CC(C)=C1C/C=C(\C)CC/C=C(\C)CC1=O [Germacrone] | 149.53 |  |
| CCCCCCCCCCCCCCCc1cccc(O)c1C(=O)O [Ginkgolic<U+00A0>Acid<U+00A0>C15:0<U+00A0>] |  | 190.92 |
| CC(C)=CCC[C@](C)(O)[C@H]1CC[C@]2(C)[C@@H]1[C@H](O)C[C@@H]1[C@@]3(C)CC[C@H](O)C(C)(C)[C@@H]3[C@@H](O[C@@H]3O[C@H](CO)[C@@H](O)[C@H](O)[C@H]3O)C[C@]12C [Ginsenoside Rh1] |  | 266.62 |
| CC1(C)C=Cc2c(ccc3c2OC[C@@H](c2ccc(O)cc2O)C3)O1 [Glabridin] | 180.63 | 184.46 |
| O=C1CCc2ccccc2O1 [Hydrocoumarin] |  | 127.47 |
| COc1ccc2c(c1)c(CC(=O)O)c(C)n2C(=O)c1ccc(Cl)cc1 [Indometacin] | 181.26 |  |
| CC1=CC23C(=O)C(C=C(CO)C(O)C2(O)C1O)C1C(CC3C)C1(C)C (stereo not drawn) [Ingenol] |  | 184.41 |
| CC(C)NC(=O)N1CC(=O)N(c2cc(Cl)cc(Cl)c2)C1=O [Iprodione] | 180.27 |  |
| CC=Cc1ccc(O)c(OC)c1 [Isoeugenol] |  | 138.02 |

| SMILES | collision cross section (ion adduct: [M+H]+) [Å²] | collision cross section (ion adduct: [M-H]-) [Å²] |
| --- | --- | --- |
| COc1ccc(-c2cc(=O)c3c(O)cc(O)c(-c4cc(-c5cc(=O)c6c(O)cc(O)cc6o5)ccc4OC)c3o2)cc1 [Isoginkgetin] | 231.51 | 230.78 |
| COc1ccc(CC2c3cc(Oc4cc(CC5c6cc(O)c(OC)cc6CCN5C)ccc4O)c(OC)cc3CCN2C)cc1 (stereo not drawn) [Isoliensinine] | 238.39 | 232.33 |
| C[C@@]12CCC3[C@@](CC[C@@H]4[C@](C)(C(=O)O)CCC[C@@]34C)(CC1=O)C2 (stereo partly drawn) [Isosteviol] | 180.22 | 180.18 |
| COC1=CC(=O)O[C@@H](/C=C/c2ccccc2)C1 [Kawain] | 150.52 |  |
| C=CC(C)(C)c1cc(/C=C/C(=O)c2ccc(O)cc2)c(OC)cc1O [Licochalcone A] | 191.26 | 194.56 |
| COc1c(C=CC(=O)c2ccc(O)cc2)ccc(O)c1O [Licochalcone B] | 170.36 | 171.14 |
| O=C1C[C@@H](c2ccc(O)cc2)Oc2cc(O)ccc21 [Liquiritigenin] | 162 | 161.75 |
| Cc1cccc(Nc2ccccc2C(=O)O)c1C [Mefenamic acid] | 154.75 |  |
| COC(=O)/C=C/c1ccc(O)cc1 [Methyl 4-hydroxycinnamate] |  | 139.5 |
| COC(=O)c1cc(OC)c(O)c(OC)c1 [Methyl syringate] |  | 146.35 |
| COc1cc(C=CC(=O)NCCc2ccc(O)cc2)ccc1O [N-trans-Feruloyltyramine] | 181.28 | 176.36 |
| CC1CCC=C2C(=O)CC3OOC(C)(C)C3C21C (stereo not drawn) [Nardosinone] |  | 156.3 |
| COc1ccc(CC2c3cc(Oc4cc(CC5c6cc(OC)c(OC)cc6CCN5C)ccc4O)c(OC)cc3CCN2C)cc1 (stereo not drawn) [Neferine] | 242.9 | 252.96 |
| NC(=O)c1cccnc1 [Nicotinamide] | 125.25 |  |
| CC(=O)OC5CC(=O)O[C@@](C)(C)[C@@H]6CC(=O)[C@]3(C)[C@H](CC[C@@]2(C)[C@@H](OC(=O)[C@H]1O[C@]123)c4ccoc4)[C@@]56C (stereo partly drawn) [Nomilin] | 217.15 | 219.9 |
| COc1cc2c3c(c1OC)-c1ccccc1C[C@H]3N(C)CC2 [Nuciferine] | 172.41 |  |
| COc1c(O)c(C)cc2c1C(=O)c1c(O)cccc1C2=O [Obtusifolin] | 158.75 | 160.85 |
| O=C(Nc1ccc(O)cc1)c1ccccc1O [Osalmid] | 151.37 | 150.88 |

Now from value to compound:

| collision cross section (ion adduct: [M+H]+) [Å²] | collision cross section (ion adduct: [M-H]-) [Å²] | SMILES |
| --- | --- | --- |
| 250.54 |  | COc1cc([C@@H]2c3cc4c(cc3[C@@H](O[C@@H]3O[C@@H]5CO[C@@H](C)O[C@H]5[C@H](O)[C@H]3O)C3COC(=O)C32)OCO4)cc(OC)c1O (stereo partly drawn) [Etoposide] |
| 155.86 |  | Nc1ccn([C@@H]2O[C@H](CO)[C@@H](O)C2(F)F)c(=O)n1 [Gemcitabine] |
|  | 184.6 | COC(=O)C1=CO[C@@H](O[C@@H]2O[C@H](CO)[C@@H](O)[C@H](O)[C@H]2O)[C@@H]2C(CO)=CC[C@H]12 [Geniposide] |
|  | 184.17 | O=C(O)C1=CO[C@@H](O[C@@H]2O[C@H](CO)[C@@H](O)[C@H](O)[C@H]2O)[C@@H]2C(CO)=CC[C@H]12 [Geniposidic acid] |
| 207.07 | 213.76 | O=c1c(-c2ccc(O)cc2)coc2cc(O[C@@H]3O[C@H](CO)[C@@H](O)[C@H](O)[C@H]3O)cc(O)c12 [Genistin] |
|  | 177.69 | C=C1C[C@]23C[C@@]1(O)CC[C@H]2[C@@]12C=C[C@H](O)[C@@](C)(C(=O)O1)[C@H]2[C@@H]3C(=O)O [Gibberellic acid] |
|  | 257.91 | CC(C)=CCC[C@](C)(O[C@@H]1O[C@H](CO)[C@@H](O)[C@H](O)[C@H]1O)[C@H]1CC[C@]2(C)[C@@H]1[C@H](O)C[C@@H]1[C@@]3(C)CC[C@H](O)C(C)(C)[C@@H]3CC[C@]12C [Ginsenoside Compound K] |
|  | 259.18 | CC(C)=CCC[C@](C)(O[C@@H]1O[C@H](CO)[C@@H](O)[C@H](O)[C@H]1O)[C@H]1CC[C@]2(C)[C@@H]1[C@H](O)C[C@@H]1[C@@]3(C)CC[C@H](O)C(C)(C)[C@@H]3[C@@H](O)C[C@]12C [Ginsenoside F1] |
|  | 310.46 | CC1(C)CC[C@]2(C(=O)O[C@@H]3O[C@H](CO)[C@@H](O)[C@H](O)[C@H]3O)CC[C@]3(C)C(=CC[C@@H]4[C@@]5(C)CC[C@H](O[C@@H]6O[C@H](C(=O)O)[C@@H](O)[C@H](O)[C@H]6O[C@@H]6O[C@H](CO)[C@@H](O)[C@H](O)[C@H]6O)C(C)(C)[C@@H]5CC[C@]43C)[C@@H]2C1 [Ginsenoside Ro] |
| 287.67 | 281.13 | CC1(C)[C@@H](O[C@H]2O[C@H](C(=O)O)[C@@H](O)[C@H](O)[C@H]2OC2O[C@H](C(=O)O)[C@@H](O)[C@H](O)[C@H]2O)CC[C@]2(C)[C@H]3C(=O)C=C4[C@@H]5C[C@@](C)(C(=O)O)CC[C@]5(C)CC[C@@]4(C)[C@]3(C)CC[C@@H]12 (stereo partly drawn) [Glycyrrhizic acid] |
| 214.42 |  | COc1cc(C2Oc3ccc(C4Oc5cc(O)cc(O)c5C(=O)C4O)cc3OC2CO)ccc1O (stereo not drawn) [Isosilybin] |
| 209.01 | 210.14 | O=c1cc(-c2ccc(O)c(O)c2)oc2cc(O[C@@H]3O[C@H](CO)[C@@H](O)[C@H](O)[C@H]3O)cc(O)c12 [Luteolin-7-O-glucoside] |
|  | 169.57 | OC[C@@H](O)[C@@H](O[C@H]1O[C@H](CO)[C@@H](O)[C@H](O)[C@H]1O)[C@H](O)[C@@H](O)CO [Maltitol] |
| 141.05 | 139.8 | CNC[C@H](O)[C@@H](O)[C@H](O)[C@H](O)CO [Meglumine] |
|  | 155.14 | NC(=O)c1ncn([C@@H]2O[C@H](CO)[C@@H](O)[C@H]2O)c1O [Mizoribine] |
|  | 199.23 | C[C@@H]1O[C@@H](Oc2c(-c3cc(O)c(O)c(O)c3)oc3cc(O)cc(O)c3c2=O)[C@H](O)[C@H](O)[C@H]1O [Myricitrin] |
|  | 229.5 | COc1ccc([C@@H]2CC(=O)c3c(O)cc(O[C@@H]4O[C@H](CO)[C@@H](O)[C@H](O)[C@H]4O[C@@H]4O[C@@H](C)[C@H](O)[C@@H](O)[C@H]4O)cc3O2)cc1O [Neohesperidin] |
| 233.96 |  | COc1ccc(CCC(=O)c2c(O)cc(O[C@@H]3O[C@H](CO)[C@@H](O)[C@H](O)[C@H]3O[C@@H]3O[C@@H](C)[C@H](O)[C@@H](O)[C@H]3O)cc2O)cc1O [Neosperidin dihydrochalcone] |
|  | 217.92 | C/C=C1/[C@H](O[C@@H]2O[C@H](CO)[C@@H](O)[C@H](O)[C@H]2O)OC=C(C(=O)OC)[C@H]1CC(=O)OCCc1ccc(O)c(O)c1 [Oleuropein] |
| 218.82 |  | CC1(C)CCC[C@](C)([C@H]2CC[C@]3(C)[C@@H]2[C@H](O)C[C@@H]2[C@@]4(C)CC[C@H](O)C(C)(C)[C@@H]4CC[C@]23C)O1 [Panaxadiol] |

Source: the supplement of paper PMC7455731
